# Patent US6355619B1, “Peptide tumor cell growth inhibitors” (Board of Regents, The University of Texas System, priority 1996, dated 2002)
# Where no end group is shown, it is not given here. [ ]: non-standard residue; d: D form.
# Test system: IL-8 receptors on neutrophils
# Assay: Inhibition of 125I-labeled IL-8 binding to human neutrophils
# Conditions: not given
# Method: Therefore, in pursuing this aim, the present inventors assayed various other peptide compositions for IL-8 inhibitory activity by screening a library of 400 groups of hexapeptides. In these screening assays, ^125I-labeled interleukin-8 (10^−12 M) was mixed with 100 μM peptide, then added to neutrophils and incubated at 4° C. for 90 min. The bound radioactivity was separated from unbound by centrifugation through a dense cushion of a mixture of paraffin and silicon oils and the ^125I bound to neutrophils was counted in a gamma radiation spectrometer, allowing the results to be expressed as the percent of IL-8 binding which was inhibited.
# The use of human subjects for acquisition of neutrophils was approved by the Institutional Review Board for human experimentation. For the preparation of neutrophils, human blood was anticoagulated with heparin for enzyme release studies and with 0.33% sodium citrate for other studies. For chemotactic and enzyme release studies neutrophils were separated by dextran sedimentation and erythrocyte lysis by the method of Boyum (Kohler and Milstein, 1975). For binding studies and cytotoxic studies, the neutrophils were further purified in gradients of Percoll (Pharmacia Fine Chemicals, Piscataway, N.J.) to a purity of 90-93% (Kohler and Milstein, 1975).
# Recombinant human IL-8 (72 amino acids; Pepro Tech Inc., Rocky Hill, N.J.) was radioactively labeled with ^125I by the chloramine T method of Hunter and Greenwood (Hunter and Greenwood, 1962). Binding studies were performed according to Besemer et al. (1989), as follows: Neutrophils in phosphate buffered saline pH 7.4 (PBS) containing 0.1% bovine serum albumin (BSA) were incubated with labeled ligand in the presence or absence of the peptide being tested for 90 min at 4° C. to reach equilibrium and then centrifuged at 12,000×g for 3 min in Beckman B microfuge (Beckman Instruments, Fullerton, Calif.), through a cushion consisting of a mixture of paraffin oil Fisher Scientific, Fair Lawn, N.J.) and silicon oil (Serva Co., N.Y., N.Y.). The pellet and supernatant were then counted in a gamma radiation spectrometer. The non-specific binding was estimated to measure the binding in the presence of 100-fold excess of non-labeled ligand. The binding constants were calculated using the computer programs Lundon I and Lundon II.
# In these studies, a screening for inhibition was carried out at 100 μM concentration of the peptide being tested, with a 10^−12 M concentration of IL-8. In the first series of studies, twenty peptides were synthesized with the carboxyl-terminal residue of RRWWCX (SEQ ID NO:23) being changed to each of the standard protein amino acids in turn.
Substance,ability to inhibit IL-8 binding to neutrophils,potency as inhibitor relative to Ac-rrwwcr-NH2
"ELRCQCIKTY [IL-8 homologue including the C-X-C motif, reference compound]",None of these peptides had the ability to inhibit IL-8 binding,–
ELRSQSIKTY [reference compound],None of these peptides had the ability to inhibit IL-8 binding,–
"GWRRWWCDAVLY [segment of cell surface glycoprotein CD11c precursor, human leukocyte adhesion receptor p150,95 alpha chain, reference compound]",lack of activity,–
Arg Arg Trp Trp Cys Arg Cys (Ac-[dR][dR][dW][dW][dC][dR][dC]-NH2; not fully specified; printed as Arg Arg Trp Trp Cys Arg Cys; cysteine pairing not given here) [rrwwcrc],–,almost four times as potent
"Ac-KELRCQ-NH2 [IL-8 homologue peptide, reference compound]",None of these peptides had the ability to inhibit IL-8 binding,–
ELRMQMIKTY [reference compound],None of these peptides had the ability to inhibit IL-8 binding,–
"Arg Arg Trp Trp Cys Asp (Ac-RRWWCD; also: D-amino acids, positions not given here)",only minimally active,–

# Same assay, conditions: 10 μM peptide (FIG. 9)
row,Substance,inhibition of IL-8 binding to neutrophils
1,Arg Arg Trp Trp Cys Arg Cys (Ac-[dR][dR][dW][dW][dC][dR][dC]-NH2; not fully specified; printed as Arg Arg Trp Trp Cys Arg Cys; cysteine pairing not given here) [rrwwcrc],80%

# Same assay, conditions: 20 μM peptide
row,Substance,IL-8 binding inhibition at lower peptide concentration (FIG. 1)
1,RRWWCN,did indeed exhibit certain inhibitory properties

# Same assay, conditions: 100 μM peptide, 10^−12 M IL-8; hexamer RRWWCX series, first screen
row,Substance,% INHIB. (IL-8 binding to neutrophils)
1,RRWWCI,45.8%
2,RRWWCQ,19.2%
3,RRWWCN,−12.0%
4,RRWWCE,17.1%
5,RRWWCP,88.3%
6,RRWWCF,80.2%
7,RRWWCH,87.9%
8,RRWWCY,77.9%
9,RRWWCM,69.0%
10,RRWWCS,79.3%
11,RRWWCK,110.3%
12,RRWWCA,51.9%
13,RRWWCW,66.4%
14,RRWWCG,86.8%
15,RRWWCT,88.4%
16,RRWWCL,86.9%
17,RRWWCV,81.1%
18,"Arg Arg Trp Trp Cys Asp (Ac-RRWWCD; also: D-amino acids, positions not given here)",11.8%
19,RRWWCC (cysteine pairing not given here),75.1%

# Same assay, conditions: first set of heptamer studies, D-amino acid RRWWCRX series; methodology of Example I
row,Substance,% INHIB. (IL-8 binding to neutrophils)
1,Arg Arg Trp Trp Cys Arg Pro ([dR][dR][dW][dW][dC][dR][dP]) [rrwwcrp],87.3%
2,Arg Arg Trp Trp Cys Arg Asn ([dR][dR][dW][dW][dC][dR][dN]) [rrwwcrn],110.8%
3,Arg Arg Trp Trp Cys Arg Phe ([dR][dR][dW][dW][dC][dR][dF]) [rrwwcrf],105.6%
4,Arg Arg Trp Trp Cys Arg Ala ([dR][dR][dW][dW][dC][dR][dA]) [rrwwcra],95.3%
5,Arg Arg Trp Trp Cys Arg Val ([dR][dR][dW][dW][dC][dR][dV]) [rrwwcrv],89.2%
6,Arg Arg Trp Trp Cys Arg Tyr ([dR][dR][dW][dW][dC][dR][dY]) [rrwwcry],85.4%
7,Arg Arg Trp Trp Cys Arg Met ([dR][dR][dW][dW][dC][dR][dM]) [rrwwcrm],96.2%
8,Arg Arg Trp Trp Cys Arg Ile ([dR][dR][dW][dW][dC][dR][dI]) [rrwwcri],93.9%
9,Arg Arg Trp Trp Cys Arg Leu ([dR][dR][dW][dW][dC][dR][dL]) [rrwwcrl],99.1%
10,Arg Arg Trp Trp Cys Arg Asp ([dR][dR][dW][dW][dC][dR][dD]) [rrwwcrd],107.0%
11,Arg Arg Trp Trp Cys Arg Cys (Ac-[dR][dR][dW][dW][dC][dR][dC]-NH2; not fully specified; printed as Arg Arg Trp Trp Cys Arg Cys; cysteine pairing not given here) [rrwwcrc],107.7%
12,Arg Arg Trp Trp Cys Arg His ([dR][dR][dW][dW][dC][dR][dH]) [rrwwcrh],107.0%
13,Arg Arg Trp Trp Cys Arg Arg ([dR][dR][dW][dW][dC][dR][dR]) [rrwwcrr],102.8%
14,Arg Arg Trp Trp Cys Arg Gln ([dR][dR][dW][dW][dC][dR][dQ]) [rrwwcrq],89.2%
15,Arg Arg Trp Trp Cys Arg Gly ([dR][dR][dW][dW][dC][dR]G) [rrwwcrg],108.0%
16,Arg Arg Trp Trp Cys Arg Trp ([dR][dR][dW][dW][dC][dR][dW]) [rrwwcrw],106.3%
17,Arg Arg Trp Trp Cys Arg Lys ([dR][dR][dW][dW][dC][dR][dK]) [rrwwcrk],113.1%
18,Arg Arg Trp Trp Cys Arg Glu ([dR][dR][dW][dW][dC][dR][dE]) [rrwwcre],99.1%
19,Arg Arg Trp Trp Cys Arg Thr ([dR][dR][dW][dW][dC][dR][dT]) [rrwwcrt],56.3%
20,Arg Arg Trp Trp Cys Arg Ser ([dR][dR][dW][dW][dC][dR][dS]) [rrwwcrs],70.4%

# Same assay, conditions: lower peptide concentration (FIG. 9)
row,Substance,more effective than the next best heptamer peptide
1,Arg Arg Trp Trp Cys Arg Cys (Ac-[dR][dR][dW][dW][dC][dR][dC]-NH2; not fully specified; printed as Arg Arg Trp Trp Cys Arg Cys; cysteine pairing not given here) [rrwwcrc],~56%

# Same assay, conditions: synthetic peptides, standard assay (Table 6)
row,Substance,% Binding Inhibition (IL-8 binding to neutrophils)
1,"ELRCQCIKTY [IL-8 homologue including the C-X-C motif, reference compound]",7.6 ± 2.1%
2,ELRSQSIKTY [reference compound],5.8 ± 3.9%
3,"GWRRWWCDAVLY [segment of cell surface glycoprotein CD11c precursor, human leukocyte adhesion receptor p150,95 alpha chain, reference compound]",−12.9 ± 2.9%
4,"Ac-KELRCQ-NH2 [IL-8 homologue peptide, reference compound]",−0.4 ± 11.8%
5,ELRMQMIKTY [reference compound],−6.9 ± 3.0%

# Target: IL-8 receptors on human neutrophils (human)
# Assay: inhibition of 125I-IL-8 (10^-12 M) binding to human neutrophils, peptide 100 µM
# Conditions: not given
row,% INHIB.,Substance
1,75.1%,RRWWCC (peptide)
2,45.8%,RRWWCI (peptide)
3,79.3%,RRWWCS (peptide)
4,11.8%,RRWWCD (peptide)
5,51.9%,RRWWCA (peptide)
6,66.4%,RRWWCW (peptide)
7,81.1%,RRWWCV (peptide)
8,86.8%,RRWWCG (peptide)
9,110%,RRWWCK (peptide)
10,19.2%,RRWWCQ (peptide)
11,87.9%,RRWWCH (peptide)
12,17.1%,RRWWCE (peptide)
13,88.4%,RRWWCT (peptide)
14,77.9%,RRWWCY (peptide)
15,86.9%,RRWWCL (peptide)
16,88.3%,RRWWCP (peptide)
17,-12%,RRWWCN (peptide)
18,80.2%,RRWWCF (peptide)
19,69%,RRWWCM (peptide)

# Target: IL-8 receptors on human neutrophils (human)
# Assay: inhibition of 125I-IL-8 binding to human neutrophils, method of Example I; D-amino acid heptamer series
# Conditions: not given
row,% INHIB.,Substance
1,89.2%,rrwwcrq (peptide)
2,85.4%,rrwwcry (peptide)
3,87.3%,rrwwcrp (peptide)
4,89.2%,rrwwcrv (peptide)
5,107%,rrwwcrd (peptide)
6,99.1%,rrwwcre (peptide)
7,99.1%,rrwwcrl (peptide)
8,111%,rrwwcrn (peptide)
9,96.2%,rrwwcrm (peptide)
10,103%,rrwwcrr (peptide)
11,106%,rrwwcrw (peptide)
12,107%,rrwwcrh (peptide)
13,95.3%,rrwwcra (peptide)
14,56.3%,rrwwcrt (peptide)
15,108%,rrwwcrg (peptide)
16,113%,rrwwcrk (peptide)
17,93.9%,rrwwcri (peptide)
18,106%,rrwwcrf (peptide)
19,70.4%,rrwwcrs (peptide)
